# Residue numbers refer to the chain shown, from its start.
# How the values were obtained:
# [1] = test system: T1, Lysosomal alpha-mannosidase (Homo sapiens), O00754 [L352P]; experiment: Chaperone activity at human Lysosomal alpha-mannosidase L352P mutant transfected in human […] knockout HAP1 cells assessed as enzyme activity enhancement at 0.2 uM incubated for 96 hrs relative to control
# T1 sequence (whole entry): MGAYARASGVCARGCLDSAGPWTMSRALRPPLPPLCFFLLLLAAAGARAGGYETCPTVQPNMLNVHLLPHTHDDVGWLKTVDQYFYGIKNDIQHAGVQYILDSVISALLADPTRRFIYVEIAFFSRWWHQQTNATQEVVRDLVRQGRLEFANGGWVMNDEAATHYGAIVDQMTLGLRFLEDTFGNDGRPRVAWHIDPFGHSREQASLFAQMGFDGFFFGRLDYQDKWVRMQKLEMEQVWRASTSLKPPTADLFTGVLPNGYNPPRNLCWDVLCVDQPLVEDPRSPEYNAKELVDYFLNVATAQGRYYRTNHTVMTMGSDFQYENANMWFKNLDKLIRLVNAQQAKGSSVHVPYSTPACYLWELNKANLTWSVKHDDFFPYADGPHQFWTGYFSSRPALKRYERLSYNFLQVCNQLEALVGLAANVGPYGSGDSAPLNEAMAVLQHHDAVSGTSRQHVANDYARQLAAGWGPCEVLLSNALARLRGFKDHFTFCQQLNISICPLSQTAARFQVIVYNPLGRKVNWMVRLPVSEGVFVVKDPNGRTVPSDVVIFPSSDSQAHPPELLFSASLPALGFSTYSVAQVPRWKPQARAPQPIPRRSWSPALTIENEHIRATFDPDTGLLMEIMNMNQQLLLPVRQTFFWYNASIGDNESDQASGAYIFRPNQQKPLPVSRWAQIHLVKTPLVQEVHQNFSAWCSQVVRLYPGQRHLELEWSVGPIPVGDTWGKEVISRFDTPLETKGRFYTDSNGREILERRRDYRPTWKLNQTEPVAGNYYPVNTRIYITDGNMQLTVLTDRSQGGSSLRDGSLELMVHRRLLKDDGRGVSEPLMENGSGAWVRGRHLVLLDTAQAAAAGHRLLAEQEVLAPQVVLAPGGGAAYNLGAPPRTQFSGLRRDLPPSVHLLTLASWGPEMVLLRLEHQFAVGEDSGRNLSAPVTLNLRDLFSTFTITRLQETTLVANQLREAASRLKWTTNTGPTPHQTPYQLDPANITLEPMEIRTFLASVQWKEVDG
# [2] = test system: T2, Lysosomal alpha-mannosidase (Homo sapiens), O00754 [L565P]; experiment: Chaperone activity at human Lysosomal alpha-mannosidase L565P mutant transfected in human […] knockout HAP1 cells assessed as enzyme activity enhancement at 2 uM incubated for 96 hrs relative to control
# T2 sequence (whole entry): T1 sequence (whole entry) with P352L, L565P
Activity [1],Activity [2],SMILES
10%,8%,COC[C@H]1O[C@@H]2O[C@H]3[C@H](OC)[C@@H](OC)[C@@H](O[C@H]4[C@H](OC)[C@@H](OC)[C@@H](O[C@H]5[C@H](OC)[C@@H](OC)[C@@H](O[C@H]6[C@H](OC)[C@@H](OC)[C@@H](O[C@H]7[C@H](OC)[C@@H](OC)[C@@H](O[C@H]8[C@H](OC)[C@@H](OC)[C@@H](O[C@H]1[C@H](OC)[C@H]2OC)O[C@@H]8COC)O[C@@H]7COC)O[C@@H]6COC)O[C@@H]5COCc1cn(CCCCCCN[C@@H]2[C@@H](O)[C@@H](O)[C@H](O)[C@H]5COC(=O)N52)nn1)O[C@@H]4COC)O[C@@H]3COC
0%,14%,CC(C)(C)OC(=O)NCCCCCCCCCN[C@@H]1[C@@H](O)[C@@H](O)[C@H](O)[C@H]2COC(=O)N21

# Reference: ChEMBL document CHEMBL4396870, “Pharmacological Chaperones for the Treatment of α-Mannosidosis” (J Med Chem, 2019)
